The numbers were not newly measured in patent publication US12163116B2, “Automated bioreactor with foam collector” (OHIO STATE INNOVATION FOUNDATION, priority 2018, dated 2024), which cites them from elsewhere.

In one data set the test system is L. innocua. Conditions: against L. innocua; taught by prior art.
The test system of data set [1] is Gram-positive bacteria including species of Listeria, Clostridium, Lactobacillus, Staphylococcus, Bacillus.
For data set [2] the following is noted: compared to commercially available lantibiotics such as nisin.

As for paenibacillin, the water solubility entry is given as “highly water soluble”. Further, the minimum inhibitory concentration in the data set with L. innocua was 4 µg/mL. Besides, the antimicrobial potency result in data set [1] was “potent against Gram-positive bacteria”. Moreover, the “temperature and pH stability” value in data set [2] was “relatively high temperature and pH stability”.
